According to US20240188613A1, “SWEETENER COMPOSITIONS COMPRISING MOGROSIDES AND USES THEREOF” (Firmenich Incorporated, priority 2021, published 2024):

What was measured:
Format in all cases: in vivo, human
[1] = Sensory testing for apple drink (panel of volunteers); details: for Bitterness / Delayed Sweetness / Global Flavor Intensity / Sweetness / Thickness/Body: in-mouth, normalized to Reb M
Method: (§1) A panel of volunteers evaluated isomogroside IVE for in-mouth attributes (sweetness, delayed sweetness, sourness, bitterness, global flavor intensity, thickness/body, and astringence) and aftertaste (AT) attribtues (lingering sweetness, overall off-taste intensity, licorice off-tast, bitterness off-taste, and mouth coating) on a 10-point scale. Two replicate sessions were conducted, with a 20 minute break between sessions. There was a 90 second delay between samples within a session. Panelists evaluated all samples in a first session and evaluated the samples again a second time in a second session. Control samples of Rebaudioside M (Reb M) were evaluated during all sessions as a control. Mogroside V was also evaluated and sensory data for mogroside V is provided.
(§2) Data analysis was performed using 2-way analysis of variance (ANOVA) with interaction using Tukey's HSD test. The data was normalized for each attribute according to average scores for Reb M.

[2] = Expert panelists' comparison of mogrosides with Stevia; details: "Examples 4 and 5", in words
[3] = Sensory testing for vanilla milk (panel of volunteers); details: for Licorice Aftertaste / Lingering Sweetness / Mouth Coating / Overall Off-Taste: aftertaste
Method: as §1, §2
A panel of volunteers evaluated vanilla milk containing isomogroside IVE for in-mouth attributes and aftertaste attributes according to the methods described in Example 1 above.

[4] = Additional sensory testing for lemon-flavored (lemon-lime) beverage (panel of flavorists); details: 600 ppm mogrosides, 0 to 10 scale, letter in parentheses = Duncan's test group
Method: (§3) A panel of flavorists at three locations evaluated lemon-lime beverage various mogrosides at a concentration of 600 ppm mogrosides for in-mouth attributes (peak sweetness, upfront sweetness, bitterness, and mouthfeel/thickness) and aftertaste attributes (sweet taste linger), on a 0 to 10 scale. The in-mouth attributes were evaluated while holding the sample in the mouth, while the aftertaste attributes were evaluated after expectoration.

[5] = Sensory testing for sparkling orange beverage (panel of volunteers)
Method: as §1, §2
A panel of volunteers evaluated a sparkling orange beverage containing isomogroside IVE for in-mouth attributes and aftertaste attributes according to the methods described in Example 1 above.

[6] = Sensory testing for lemon-lime carbonated soft drink (panel of volunteers)
Method: as §1, §2
A panel of volunteers evaluated the isomogroside IVE-containing lemon-lime carbonated soft drink for in-mouth attributes and aftertaste attributes according to the methods described in Example 1 above.

[7] = Additional sensory testing for vanilla milk (panel of flavorists); details: 400 ppm mogrosides, 0 to 10 scale, letter in parentheses = Duncan's test group
Method: as §3, with “vanilla milk containing” for “lemon-lime beverage”, “400” for “600”, “expectoration. The data was analyzed using Duncan's new multiple range test and the scores are provided in the data below in parentheses.” for “expectoration.”

[8] = 250 ppm (mogroside V 250 mg [sic]), aftertaste, 10-point scale
[9] = 250 ppm (mogroside V 250 mg [sic]), 10-point scale
[10] = 500 ppm (mogroside V 500 mg [sic]), aftertaste, 10-point scale
[11] = 500 ppm (mogroside V 500 mg [sic]), 10-point scale
[12] = same concentration of Reb M, in words
[13] = 200 ppm (mogroside V 200 mg [sic]), 10-point scale, normalized
[14] = 200 ppm (mogroside V 200 mg [sic]), in-mouth, 10-point scale, normalized
[15] = 400 ppm (mogroside V 400 mg [sic]), 10-point scale, normalized
[16] = 400 ppm (mogroside V 400 mg [sic]), in-mouth, 10-point scale, normalized
[17] = 250 ppm (mogroside V 250 mg [sic]), aftertaste, 10-point scale, normalized
[18] = 250 ppm (mogroside V 250 mg [sic]), in-mouth, 10-point scale, normalized
[19] = 600 ppm (mogroside V 600 mg [sic]), aftertaste, 10-point scale, normalized
[20] = 600 ppm (mogroside V 600 mg [sic]), in-mouth, 10-point scale, normalized

Structure (SMILES): C[C@H](CC[C@@H](O[C@@H]1O[C@H](CO)[C@@H](O)[C@H](O)[C@H]1O[C@@H]1O[C@H](CO)[C@@H](O)[C@H](O)[C@H]1O)C(C)(C)O)[C@@]1(C)CC[C@@]2(C)[C@@H]3CC=C4[C@@H](CC[C@H](O[C@@H]5O[C@H](CO)[C@@H](O[C@@H]6O[C@H](CO)[C@@H](O)[C@H](O)[C@H]6O)[C@H](O)[C@H]5O)C4(C)C)[C@]3(C)[C@H](O)C[C@@]21C [isomogroside IVE]
- Bitterness Aftertaste [1, 8]: 1.5
- Licorice Aftertaste [1, 8]: 2.4
- Lingering Sweetness [1, 8]: 3.0
- Overall Off-Taste [1, 8]: 3.2
- Bitterness [1, 9]: 1.4
- Delayed Sweetness [1, 9]: 2.1
- Global Flavor Intensity [1, 9]: 3.3
- Sweetness [1, 9]: 3.9
- Thickness/Body [1, 9]: 1.6
- Licorice Aftertaste [1, 10]: 2.2
- Lingering Sweetness [1, 10]: 3.4
- Mouth Coating [1, 10]: 2.0
- Overall Off-Taste [1, 10]: 3.1
- Bitterness [1, 11]: 1.9
- Delayed Sweetness [1, 11]: 2.6
- Global Flavor Intensity [1, 11]: 3.5
- Sweetness [1, 11]: 4.5
- Thickness/Body [1, 11]: 1.6
- Overall off-taste compared with mogroside V ([1]; aftertaste, in words): lower overall off-taste
- Lingering sweetness aftertaste compared with Reb M ([1]; at both 250 ppm and 500 ppm, in words): significantly improved
- Bitterness compared with mogroside V ([1]; in words): lower bitterness
- Global flavor intensity compared with mogroside V ([1]; in words): higher
- Sweetness compared with mogroside V ([1]; in words): higher sweetness
- Thickness/body compared with mogroside V ([1]; in words): higher thickness/body
- Global flavor intensity compared with Reb M [1, 12]: lower global flavor intensity
- Sweetness compared with Reb M [1, 12]: somewhat less sweet
- Bitter aftertaste compared with Stevia [2]: lower bitter aftertaste
- Licorice aftertaste compared with Stevia [2]: lower licorice aftertaste
- Mouthfeel compared with Stevia [2]: better mouthfeel
- Licorice Aftertaste [3, 13]: 0.8
- Lingering Sweetness [3, 13]: 2.6
- Mouth Coating [3, 13]: 2.9
- Overall Off-Taste [3, 13]: 2.1
- Astringence [3, 14]: 0.5
- Delayed Sweetness [3, 14]: 1.7
- Fattiness [3, 14]: 2.9
- Sourness [3, 14]: 0.5
- Sweetness [3, 14]: 5.1
- Licorice Aftertaste [3, 15]: 1.4
- Lingering Sweetness [3, 15]: 3.7
- Mouth Coating [3, 15]: 0.9
- Overall Off-Taste [3, 15]: 2.0
- Astringence [3, 16]: 0.7
- Bitterness [3, 16]: 1.0
- Delayed Sweetness [3, 16]: 2.5
- Fattiness [3, 16]: 3.9
- Global Flavor Intensity [3, 16]: 4.6
- Sourness [3, 16]: 0.8
- Sweetness [3, 16]: 6.8
- Bitterness compared with mogroside V ([3]; at 400 ppm, in words): lower bitterness
- Fattiness compared with mogroside V ([3]; at 400 ppm, in words): higher
- Global flavor intensity compared with mogroside V ([3]; at 400 ppm, in words): higher
- Sweetness compared with Reb M ([3]; at both 200 ppm and 400 ppm, in words): increased sweetness
- Sweetness compared with mogroside V ([3]; in words): higher sweetness
- Sweet Linger ([4]; aftertaste after expectoration): 3.429 (c)
- Bitterness ([4]; in-mouth): 1.857 (a)
- Mouthfeel/Thickness ([4]; in-mouth): 2.714 (b)
- Peak Sweetness ([4]; in-mouth): 4.857 (c)
- Upfront Sweetness ([4]; in-mouth): 3.571 (b)
- Licorice Aftertaste [5, 17]: 2.1
- Lingering Sweetness [5, 17]: 3.9
- Mouth Coating [5, 17]: 1.9
- Overall Off-Taste [5, 17]: 3.3
- Delayed Sweetness [5, 18]: 3.5
- Sweetness [5, 18]: 4.9
- Delayed sweetness compared with Reb M ([5]; 250 ppm, in words): slightly increased delayed sweetness
- Sweetness compared with Reb M ([5]; 250 ppm, in words): overall lower sweetness
- Bitterness Aftertaste [6, 19]: 1.8
- Licorice Aftertaste [6, 19]: 2.9
- Lingering Sweetness [6, 19]: 4.2
- Overall Off-Taste [6, 19]: 3.8
- Bitterness [6, 20]: 2.2
- Delayed Sweetness [6, 20]: 3.5
- Global Flavor Intensity [6, 20]: 5.0
- Sweetness [6, 20]: 5.0
- Sweetness compared with Reb M ([6]; 600 ppm, in words): overall lower sweetness
- Global flavor intensity compared with mogroside V ([6]; in words): higher global flavor intensity
- Sweetness compared with mogroside V ([6]; in words): comparable sweetness
- Sweet Linger ([7]; aftertaste after expectoration): 4.563 (b)
- Bitterness ([7]; in-mouth): 1.313 (ab)
- Mouthfeel/Thickness ([7]; in-mouth): 4.125 (b)
- Peak Sweetness ([7]; in-mouth): 5.938 (c)
- Upfront Sweetness ([7]; in-mouth): 5.125 (b)
